Assays:
[1] = molecular target: Metabotropic glutamate receptor 5 (Rattus norvegicus) (UniProt P31424); assay: Negative allosteric modulator activity at rat mGlu5 expressed in HEK293A cells assessed as reduction in 100 uM glutamate-induced calcium mobilization at 30 uM; type: functional, cell-based; details: HEK293-A
[2] = molecular target: Metabotropic glutamate receptor 5 (Rattus norvegicus, UniProt P31424); assay: Negative allosteric modulator activity at rat mGlu5 expressed in HEK293A cells assessed as reduction in glutamate-induced calcium mobilization; type: functional, cell-based, HEK293-A
Metabotropic glutamate receptor 5, sequence (P31424 whole entry): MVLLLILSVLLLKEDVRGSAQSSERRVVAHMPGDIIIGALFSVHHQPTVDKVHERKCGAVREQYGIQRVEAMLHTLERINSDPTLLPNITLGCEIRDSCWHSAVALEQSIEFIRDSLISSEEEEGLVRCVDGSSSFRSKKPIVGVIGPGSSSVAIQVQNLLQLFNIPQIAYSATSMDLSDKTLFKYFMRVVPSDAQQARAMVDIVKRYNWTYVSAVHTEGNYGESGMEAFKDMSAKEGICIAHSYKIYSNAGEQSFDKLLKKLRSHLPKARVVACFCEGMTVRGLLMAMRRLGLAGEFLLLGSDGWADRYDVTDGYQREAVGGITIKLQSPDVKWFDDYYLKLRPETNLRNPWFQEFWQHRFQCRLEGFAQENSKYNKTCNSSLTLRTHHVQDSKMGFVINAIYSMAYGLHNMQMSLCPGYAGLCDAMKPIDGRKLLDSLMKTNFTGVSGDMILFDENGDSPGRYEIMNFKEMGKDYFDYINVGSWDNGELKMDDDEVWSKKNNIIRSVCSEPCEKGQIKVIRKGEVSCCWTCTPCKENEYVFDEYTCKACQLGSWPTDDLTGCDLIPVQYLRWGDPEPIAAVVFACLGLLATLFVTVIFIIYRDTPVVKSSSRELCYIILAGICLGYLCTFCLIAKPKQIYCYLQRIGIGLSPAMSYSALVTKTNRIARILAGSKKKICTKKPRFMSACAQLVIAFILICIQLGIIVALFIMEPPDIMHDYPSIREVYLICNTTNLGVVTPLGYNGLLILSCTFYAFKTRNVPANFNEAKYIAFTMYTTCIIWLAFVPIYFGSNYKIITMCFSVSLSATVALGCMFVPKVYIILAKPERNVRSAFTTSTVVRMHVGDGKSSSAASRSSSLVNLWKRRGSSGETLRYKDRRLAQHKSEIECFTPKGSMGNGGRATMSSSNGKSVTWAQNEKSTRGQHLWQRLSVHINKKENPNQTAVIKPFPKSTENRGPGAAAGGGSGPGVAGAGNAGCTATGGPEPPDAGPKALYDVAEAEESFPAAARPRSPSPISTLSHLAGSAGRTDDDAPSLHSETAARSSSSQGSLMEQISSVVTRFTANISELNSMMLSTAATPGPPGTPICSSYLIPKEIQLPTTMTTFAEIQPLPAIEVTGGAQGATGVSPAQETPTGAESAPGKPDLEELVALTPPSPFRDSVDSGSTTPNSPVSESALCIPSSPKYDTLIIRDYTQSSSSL

Metabotropic glutamate receptor 5 (Rattus norvegicus), sequence (P31424 21-1203 limits assumed): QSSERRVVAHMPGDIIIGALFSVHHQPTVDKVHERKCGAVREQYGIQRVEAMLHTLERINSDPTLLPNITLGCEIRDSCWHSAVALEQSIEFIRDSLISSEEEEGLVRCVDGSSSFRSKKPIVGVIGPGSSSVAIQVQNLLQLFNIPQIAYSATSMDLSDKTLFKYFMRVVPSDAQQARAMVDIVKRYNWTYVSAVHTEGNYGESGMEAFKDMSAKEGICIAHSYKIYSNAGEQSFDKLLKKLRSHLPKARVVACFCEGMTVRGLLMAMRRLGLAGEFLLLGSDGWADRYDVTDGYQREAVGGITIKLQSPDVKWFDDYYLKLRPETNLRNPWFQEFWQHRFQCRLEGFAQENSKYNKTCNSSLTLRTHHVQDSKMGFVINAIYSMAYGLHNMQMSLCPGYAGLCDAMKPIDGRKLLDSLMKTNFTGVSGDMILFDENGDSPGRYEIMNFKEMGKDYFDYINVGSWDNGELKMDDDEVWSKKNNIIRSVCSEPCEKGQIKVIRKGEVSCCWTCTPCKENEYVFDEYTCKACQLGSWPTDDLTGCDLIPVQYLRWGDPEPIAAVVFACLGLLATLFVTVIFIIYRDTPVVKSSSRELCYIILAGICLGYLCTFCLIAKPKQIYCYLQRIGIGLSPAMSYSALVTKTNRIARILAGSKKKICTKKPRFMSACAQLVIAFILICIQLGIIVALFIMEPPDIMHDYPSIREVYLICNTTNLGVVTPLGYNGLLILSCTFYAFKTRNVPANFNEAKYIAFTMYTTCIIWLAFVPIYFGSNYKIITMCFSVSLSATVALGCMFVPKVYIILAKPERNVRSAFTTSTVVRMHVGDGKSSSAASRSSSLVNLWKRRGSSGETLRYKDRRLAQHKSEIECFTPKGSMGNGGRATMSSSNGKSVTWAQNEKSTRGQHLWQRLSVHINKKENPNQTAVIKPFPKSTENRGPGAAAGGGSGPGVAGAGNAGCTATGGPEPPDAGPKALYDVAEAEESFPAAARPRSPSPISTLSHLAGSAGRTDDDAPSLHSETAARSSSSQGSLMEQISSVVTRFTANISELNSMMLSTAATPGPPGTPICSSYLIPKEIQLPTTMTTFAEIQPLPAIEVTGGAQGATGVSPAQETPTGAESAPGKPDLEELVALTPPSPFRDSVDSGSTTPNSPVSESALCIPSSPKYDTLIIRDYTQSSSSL

| %max [1] | IC50 [2] | Structure (SMILES) |
| --- | --- | --- |
| 15% | > 10 µM | O=C(Nc1cncc(Oc2cncnc2)n1)c1ccsc1 |
| 2% | 0.118 µM | O=C(Nc1cncc(Oc2cncc(F)c2)n1)c1cccc(Cl)c1 |
| 40% | > 10 µM | O=C(Nc1cncc(Oc2cncc(F)c2)n1)c1ccccn1 |
| 35% | > 10 µM | O=C(Nc1cncc(Oc2cncnc2)n1)c1cscn1 |
| 19% | – | Cc1nc(C(=O)Nc2cncc(Oc3cncc(F)c3)n2)cs1 |
| -4.3% | – | COc1cccc(C(=O)Nc2cncc(Oc3cncnc3)n2)c1 |

Continued, compound first:

| Structure (SMILES) | %max [1] | IC50 [2] |
| --- | --- | --- |
| Cc1csc(C(=O)Nc2cncc(Oc3cncc(F)c3)n2)n1 | 20% | > 10 µM |
| N#Cc1cc(F)cc(C(=O)Nc2cncc(Oc3cncc(F)c3)n2)c1 | – | > 30 µM |
| O=C(Nc1cncc(Oc2cncc(F)c2)n1)c1cc(F)cc(Cl)c1 | 48% | > 10 µM |
| O=C(Nc1cncc(Oc2cncc(F)c2)n1)c1cc(Cl)cc(Cl)c1 | – | > 30 µM |
| N#Cc1cccc(C(=O)Nc2cncc(Oc3cncc(F)c3)n2)c1 | 1.2% | 0.662 µM |
